Assays:
Type in all cases: cell-based
[1] = target: T1, ZBTB7A (Homo sapiens, UniProt O95365+Q96SW2); assay: HUDEP-2 ZBTB7A HiBiT degradation assay; conditions: HiBiT-tagged ZBTB7A degradation in HUDEP-2 cells, 24 hours of treatment; read-out: ZBTB7A EC50
T1 construct: HUDEP-2 cells engineered to express a HiBiT tag in either the WIZ (Widely interspaced zinc finger) or ZBTB7A
In short: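 HiBiT-tagged HUDEP-2 cells were pre-cultured 48 h in IMDM with EPO, SCF, doxycycline and 5% human plasma, then exposed to compounds at 1.0×10^6 cells/ml for 24 h at 37 °C. Nano-Glo HiBiT lytic luminescence, normalised to DMSO over 10 concentrations, gave EC50 and Y-min.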

[2] = tested on: HbF; assay: HbF HiBiT induction assay in HUDEP-2 cells; conditions: HUDEP-2 cells with HiBiT tag in HBG1/2, 72 hours of treatment; area under the dose response curve, higher AUC = greater HbF induction
In short: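 HUDEP-2 cells carrying a HiBiT tag on HBG1/2 were exposed to compounds for 72 h at 37° C, 5% CO2, in IMDM with EPO, hSCF, DOX, transferrin, insulin, heparin and 5% human plasma. HiBiT luminescence was read after lytic detection; HbF induction is expressed as dose-response AUC, alongside EC50 and Ymax.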

[3] = target: T2, WIZ (Homo sapiens, UniProt O95785+Q96SW2); assay: HUDEP-2 WIZ HiBiT degradation assay; conditions: HiBiT-tagged WIZ degradation in HUDEP-2 cells, 24 hours of treatment; read-out: WIZ EC50
T2 construct: HUDEP-2 cells engineered to express a HiBiT tag in either the WIZ (Widely interspaced zinc finger) or ZBTB7A
In short: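 HiBiT-tagged HUDEP-2 cells at 1.0×10^6 cells/ml in SFEM II with SCF, EPO, dexamethasone and doxycycline, treated 24 h at 37 °C with a 10-point series ([…]). Luminescence after HiBiT lytic detection, normalized to DMSO; EC50 and Y-min from fitted curves.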

T1 sequence (O95365 whole entry): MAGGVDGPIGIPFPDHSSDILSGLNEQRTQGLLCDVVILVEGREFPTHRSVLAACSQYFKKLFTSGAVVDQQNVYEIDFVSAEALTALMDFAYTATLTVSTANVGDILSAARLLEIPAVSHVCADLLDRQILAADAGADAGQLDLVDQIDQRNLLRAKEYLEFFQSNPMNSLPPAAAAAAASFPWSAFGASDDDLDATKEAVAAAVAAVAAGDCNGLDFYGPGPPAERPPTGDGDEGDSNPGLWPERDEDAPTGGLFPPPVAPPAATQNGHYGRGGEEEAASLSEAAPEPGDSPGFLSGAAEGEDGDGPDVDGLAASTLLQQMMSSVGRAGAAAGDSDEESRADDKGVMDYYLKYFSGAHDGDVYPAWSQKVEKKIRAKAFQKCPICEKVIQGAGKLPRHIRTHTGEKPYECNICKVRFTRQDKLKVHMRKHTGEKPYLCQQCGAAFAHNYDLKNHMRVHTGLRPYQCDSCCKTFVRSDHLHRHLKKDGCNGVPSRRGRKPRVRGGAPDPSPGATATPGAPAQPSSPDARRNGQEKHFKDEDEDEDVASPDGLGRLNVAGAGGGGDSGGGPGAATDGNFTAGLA
T1 sequence (Q96SW2 whole entry): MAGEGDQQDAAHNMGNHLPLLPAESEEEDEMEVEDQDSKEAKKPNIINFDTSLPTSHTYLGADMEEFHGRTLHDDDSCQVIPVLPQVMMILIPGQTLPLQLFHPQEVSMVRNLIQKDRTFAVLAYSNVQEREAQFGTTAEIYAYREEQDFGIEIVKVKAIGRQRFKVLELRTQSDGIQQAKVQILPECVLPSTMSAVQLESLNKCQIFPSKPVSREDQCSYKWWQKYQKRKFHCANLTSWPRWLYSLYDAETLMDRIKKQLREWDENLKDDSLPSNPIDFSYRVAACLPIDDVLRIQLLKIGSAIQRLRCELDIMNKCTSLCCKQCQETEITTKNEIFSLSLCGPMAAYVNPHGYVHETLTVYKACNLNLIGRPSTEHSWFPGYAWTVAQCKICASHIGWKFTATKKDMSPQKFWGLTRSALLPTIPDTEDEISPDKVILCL
T1 sequence (Q16531 whole entry partner): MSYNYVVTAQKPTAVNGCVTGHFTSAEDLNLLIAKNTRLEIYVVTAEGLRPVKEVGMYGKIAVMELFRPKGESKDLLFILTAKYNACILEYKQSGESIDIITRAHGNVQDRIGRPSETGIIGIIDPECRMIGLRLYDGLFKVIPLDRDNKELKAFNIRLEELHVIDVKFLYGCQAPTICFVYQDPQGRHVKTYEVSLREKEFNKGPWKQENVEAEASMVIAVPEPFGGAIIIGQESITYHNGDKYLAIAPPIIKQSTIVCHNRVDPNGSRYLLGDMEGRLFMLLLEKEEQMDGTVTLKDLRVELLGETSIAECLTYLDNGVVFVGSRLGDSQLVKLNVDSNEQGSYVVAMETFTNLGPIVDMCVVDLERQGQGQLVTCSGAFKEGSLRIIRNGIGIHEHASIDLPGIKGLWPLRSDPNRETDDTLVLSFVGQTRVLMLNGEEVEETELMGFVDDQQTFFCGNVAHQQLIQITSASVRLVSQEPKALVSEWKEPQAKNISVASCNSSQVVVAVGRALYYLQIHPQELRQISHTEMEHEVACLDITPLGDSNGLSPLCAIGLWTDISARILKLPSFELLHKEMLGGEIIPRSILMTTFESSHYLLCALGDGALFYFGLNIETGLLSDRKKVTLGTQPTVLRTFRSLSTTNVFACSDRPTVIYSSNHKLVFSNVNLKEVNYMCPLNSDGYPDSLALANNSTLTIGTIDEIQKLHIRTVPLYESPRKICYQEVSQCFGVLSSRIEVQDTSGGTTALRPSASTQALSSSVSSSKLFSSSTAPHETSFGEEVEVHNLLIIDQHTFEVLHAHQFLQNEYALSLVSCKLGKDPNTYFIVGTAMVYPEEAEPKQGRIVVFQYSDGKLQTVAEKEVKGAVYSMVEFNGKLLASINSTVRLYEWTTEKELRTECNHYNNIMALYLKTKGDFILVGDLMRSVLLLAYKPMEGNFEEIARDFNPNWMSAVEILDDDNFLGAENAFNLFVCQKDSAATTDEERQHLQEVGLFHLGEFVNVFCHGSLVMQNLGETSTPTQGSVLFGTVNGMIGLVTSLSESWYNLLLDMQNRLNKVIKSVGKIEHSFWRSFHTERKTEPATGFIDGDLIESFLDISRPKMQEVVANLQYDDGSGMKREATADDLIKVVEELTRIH
T2 sequence (O95785 whole entry): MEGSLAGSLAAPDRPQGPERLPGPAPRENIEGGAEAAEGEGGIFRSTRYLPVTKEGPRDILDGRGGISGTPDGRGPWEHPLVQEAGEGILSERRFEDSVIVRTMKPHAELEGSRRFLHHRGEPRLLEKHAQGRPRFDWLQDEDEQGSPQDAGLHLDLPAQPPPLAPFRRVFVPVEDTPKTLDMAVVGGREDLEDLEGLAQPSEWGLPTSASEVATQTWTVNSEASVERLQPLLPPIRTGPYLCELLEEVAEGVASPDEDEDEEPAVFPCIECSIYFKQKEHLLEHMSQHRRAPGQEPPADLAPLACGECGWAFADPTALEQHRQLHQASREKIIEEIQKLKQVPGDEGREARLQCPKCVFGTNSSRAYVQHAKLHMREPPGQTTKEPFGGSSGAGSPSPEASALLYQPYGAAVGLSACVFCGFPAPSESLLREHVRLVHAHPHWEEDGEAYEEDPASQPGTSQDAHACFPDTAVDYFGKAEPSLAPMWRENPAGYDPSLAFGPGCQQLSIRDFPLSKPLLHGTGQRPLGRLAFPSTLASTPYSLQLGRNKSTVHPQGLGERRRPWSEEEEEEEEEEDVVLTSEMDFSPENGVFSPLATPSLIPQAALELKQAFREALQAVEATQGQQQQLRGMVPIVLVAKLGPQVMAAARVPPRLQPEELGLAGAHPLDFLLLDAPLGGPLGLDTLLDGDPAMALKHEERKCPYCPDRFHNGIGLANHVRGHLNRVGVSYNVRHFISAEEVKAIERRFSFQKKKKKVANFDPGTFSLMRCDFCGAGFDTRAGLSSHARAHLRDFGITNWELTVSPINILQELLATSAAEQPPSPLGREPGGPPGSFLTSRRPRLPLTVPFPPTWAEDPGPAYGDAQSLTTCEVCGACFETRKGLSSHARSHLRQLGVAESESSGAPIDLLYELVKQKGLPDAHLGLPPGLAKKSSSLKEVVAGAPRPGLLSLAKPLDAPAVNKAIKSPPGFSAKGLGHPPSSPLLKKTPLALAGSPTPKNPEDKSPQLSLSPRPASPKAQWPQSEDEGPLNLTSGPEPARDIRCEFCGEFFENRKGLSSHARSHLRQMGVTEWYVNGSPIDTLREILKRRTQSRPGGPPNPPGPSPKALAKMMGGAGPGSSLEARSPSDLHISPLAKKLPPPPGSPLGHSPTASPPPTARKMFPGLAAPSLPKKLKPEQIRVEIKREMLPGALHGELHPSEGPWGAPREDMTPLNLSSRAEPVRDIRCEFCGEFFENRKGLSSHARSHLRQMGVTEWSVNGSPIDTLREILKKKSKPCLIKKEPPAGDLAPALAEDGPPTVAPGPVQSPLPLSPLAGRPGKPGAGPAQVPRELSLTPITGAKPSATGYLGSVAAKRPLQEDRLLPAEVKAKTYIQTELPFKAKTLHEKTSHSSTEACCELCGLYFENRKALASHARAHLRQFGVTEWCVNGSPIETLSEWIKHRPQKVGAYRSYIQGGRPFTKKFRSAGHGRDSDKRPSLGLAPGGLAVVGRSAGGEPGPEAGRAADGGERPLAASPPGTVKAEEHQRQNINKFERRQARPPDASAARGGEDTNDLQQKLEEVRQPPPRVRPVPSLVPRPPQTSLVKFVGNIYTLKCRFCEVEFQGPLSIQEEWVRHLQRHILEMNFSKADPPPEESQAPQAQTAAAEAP
T2 sequence (Q96SW2 whole entry): as the sequence (Q96SW2 whole entry) above
T2 sequence (Q16531 whole entry partner): as the sequence (Q16531 whole entry partner) above

SMILES	DC50 [1] [nM]	HBF AUC [2]	DC50 [3] [nM]
COc1nccc(-c2cc3c(cc2Nc2cccc4c2C(=O)N([C@H]2CCC(=O)NC2=O)C4=O)N(C)C(=O)[C@H](C)O3)c1F [Compound 35, 2-((S)-2,6-dioxopiperidin-3-yl)-4-(((S)-7-(3-fluoro-2-methoxypyridin-4-yl)-2,4-dimethyl-3-oxo-3,4-dihydro-2H-benzo[b][1,4]oxazin-6-yl)amino)isoindoline-1,3-dione]	8	+ (+ = 15 ≤ AUC < 100)	11
COc1nccc(-c2cc3c(cc2Nc2cccc4c2C(=O)N([C@H]2CCC(=O)NC2=O)C4=O)N(C)C(=O)[C@@H](C)O3)c1F [Compound 36, 2-((S)-2,6-dioxopiperidin-3-yl)-4-(((R)-7-(3-fluoro-2-methoxypyridin-4-yl)-2,4-dimethyl-3-oxo-3,4-dihydro-2H-benzo[b][1,4]oxazin-6-yl)amino)isoindoline-1,3-dione]	19	+ (+ = 15 ≤ AUC < 100)	15
Cc1ccc(-c2cc3c(cc2Nc2cccc4c2C(=O)N([C@H]2CCC(=O)NC2=O)C4=O)N(C)C(=O)CO3)c(F)n1 [Compound 37, (S)-2-(2,6-dioxopiperidin-3-yl)-4-((7-(2-fluoro-6-methylpyridin-3-yl)-4-methyl-3-oxo-3,4-dihydro-2H-benzo[b][1,4]oxazin-6-yl)amino)isoindoline-1,3-dione]	13	+ (+ = 15 ≤ AUC < 100)	7
COc1ccc(-c2cc3c(cc2Nc2cccc4c2C(=O)N([C@H]2CCC(=O)NC2=O)C4=O)N(C)C(=O)CO3)cn1 [Compound 38, (S)-2-(2,6-dioxopiperidin-3-yl)-4-((7-(6-methoxypyridin-3-yl)-4-methyl-3-oxo-3,4-dihydro-2H-benzo[b][1,4]oxazin-6-yl)amino)isoindoline-1,3-dione]	13	++ (++ = 100 ≤ AUC < 150)	14
COc1ccc(-c2cc3c(cc2Nc2cccc4c2C(=O)N([C@H]2CCC(=O)NC2=O)C4=O)N(C)C(=O)[C@@H](C)O3)cn1 [Compound 39, 2-((S)-2,6-dioxopiperidin-3-yl)-4-(((R)-7-(6-methoxypyridin-3-yl)-2,4-dimethyl-3-oxo-3,4-dihydro-2H-benzo[b][1,4]oxazin-6-yl)amino)isoindoline-1,3-dione]	16	+ (+ = 15 ≤ AUC < 100)	13
COc1ccc(-c2cc3c(cc2Nc2cccc4c2C(=O)N([C@H]2CCC(=O)NC2=O)C4=O)N(C)C(=O)[C@H](C)O3)cn1 [Compound 40, 2-((S)-2,6-dioxopiperidin-3-yl)-4-(((S)-7-(6-methoxypyridin-3-yl)-2,4-dimethyl-3-oxo-3,4-dihydro-2H-benzo[b][1,4]oxazin-6-yl)amino)isoindoline-1,3-dione]	16	+ (+ = 15 ≤ AUC < 100)	12
Cc1cncc(-c2cc3c(cc2Nc2cccc4c2C(=O)N([C@H]2CCC(=O)NC2=O)C4=O)N(C)C(=O)CO3)c1 [Compound 41, (S)-2-(2,6-dioxopiperidin-3-yl)-4-((4-methyl-7-(5-methylpyridin-3-yl)-3-oxo-3,4-dihydro-2H-benzo[b][1,4]oxazin-6-yl)amino)isoindoline-1,3-dione]	17	+++ (+++ = AUC ≥ 150)	10
Cc1cncc(-c2cc3c(cc2Nc2cccc4c2C(=O)N([C@H]2CCC(=O)NC2=O)C4=O)N(C)C(=O)[C@@H](C)O3)c1 [Compound 42, 4-(((R)-2,4-dimethyl-7-(5-methylpyridin-3-yl)-3-oxo-3,4-dihydro-2H-benzo[b][1,4]oxazin-6-yl)amino)-2-((S)-2,6-dioxopiperidin-3-yl)isoindoline-1,3-dione]	18	+ (+ = 15 ≤ AUC < 100)	9
Cc1cncc(-c2cc3c(cc2Nc2cccc4c2C(=O)N([C@H]2CCC(=O)NC2=O)C4=O)N(C)C(=O)[C@H](C)O3)c1 [Compound 43, 4-(((S)-2,4-dimethyl-7-(5-methylpyridin-3-yl)-3-oxo-3,4-dihydro-2H-benzo[b][1,4]oxazin-6-yl)amino)-2-((S)-2,6-dioxopiperidin-3-yl)isoindoline-1,3-dione]	24	++ (++ = 100 ≤ AUC < 150)	15
CCO[C@H]1CC[C@H](c2cc3c(cc2Nc2cccc4c2C(=O)N([C@H]2CCC(=O)NC2=O)C4=O)N(C)C(=O)CO3)CC1 [Compound 44, 2-((S)-2,6-dioxopiperidin-3-yl)-4-((7-((1r,4S)-4-ethoxycyclohexyl)-4-methyl-3-oxo-3,4-dihydro-2H-benzo[b][1,4]oxazin-6-yl)amino)isoindoline-1,3-dione]	6	++ (++ = 100 ≤ AUC < 150)	4
CCO[C@H]1CC[C@H](c2cc3c(cc2Nc2cccc4c2C(=O)N([C@H]2CCC(=O)NC2=O)C4=O)N(C)C(=O)[C@@H](C)O3)CC1 [Compound 45, 2-((S)-2,6-dioxopiperidin-3-yl)-4-(((R)-7-((1r,4R)-4-ethoxycyclohexyl)-2,4-dimethyl-3-oxo-3,4-dihydro-2H-benzo[b][1,4]oxazin-6-yl)amino)isoindoline-1,3-dione]	10	++ (++ = 100 ≤ AUC < 150)	6
CCO[C@H]1CC[C@H](c2cc3c(cc2Nc2cccc4c2C(=O)N([C@H]2CCC(=O)NC2=O)C4=O)N(C)C(=O)[C@H](C)O3)CC1 [Compound 46, 2-((S)-2,6-dioxopiperidin-3-yl)-4-(((S)-7-((1r,4S)-4-ethoxycyclohexyl)-2,4-dimethyl-3-oxo-3,4-dihydro-2H-benzo[b][1,4]oxazin-6-yl)amino)isoindoline-1,3-dione]	7	++ (++ = 100 ≤ AUC < 150)	2
Cc1cc(-c2cc3c(cc2Nc2cccc4c2C(=O)N([C@H]2CCC(=O)NC2=O)C4=O)N(C)C(=O)CO3)cc(C(F)F)n1 [Compound 47, (S)-4-((7-(2-(difluoromethyl)-6-methylpyridin-4-yl)-4-methyl-3-oxo-3,4-dihydro-2H-benzo[b][1,4]oxazin-6-yl)amino)-2-(2,6-dioxopiperidin-3-yl)isoindoline-1,3-dione]	49	+++ (+++ = AUC ≥ 150)	43
Cc1cc(-c2cc3c(cc2Nc2cccc4c2C(=O)N([C@H]2CCC(=O)NC2=O)C4=O)N(C)C(=O)[C@H](C)O3)cc(C(F)F)n1 [Compound 48, 4-(((S)-7-(2-(difluoromethyl)-6-methylpyridin-4-yl)-2,4-dimethyl-3-oxo-3,4-dihydro-2H-benzo[b][1,4]oxazin-6-yl)amino)-2-((S)-2,6-dioxopiperidin-3-yl)isoindoline-1,3-dione]	52	++ (++ = 100 ≤ AUC < 150)	31
Cc1cc(-c2cc3c(cc2Nc2cccc4c2C(=O)N([C@H]2CCC(=O)NC2=O)C4=O)N(C)C(=O)[C@@H](C)O3)cc(C(F)F)n1 [Compound 49, 4-(((R)-7-(2-(difluoromethyl)-6-methylpyridin-4-yl)-2,4-dimethyl-3-oxo-3,4-dihydro-2H-benzo[b][1,4]oxazin-6-yl)amino)-2-((S)-2,6-dioxopiperidin-3-yl)isoindoline-1,3-dione]	71	++ (++ = 100 ≤ AUC < 150)	39
Cc1cc(-c2cc3c(cc2Nc2cccc4c2C(=O)N(C2CCC(=O)NC2=O)C4=O)N(C)S(=O)(=O)CC3)ccn1 (stereo not drawn) [Compound 50, 2-(2,6-dioxopiperidin-3-yl)-4-((1-methyl-6-(2-methylpyridin-4-yl)-2,2-dioxido-3,4-dihydro-1H-benzo[c][1,2]thiazin-7-yl)amino)isoindoline-1,3-dione]	28	+ (+ = 15 ≤ AUC < 100)	18
COc1ncc(-c2cc3c(cc2Nc2cccc4c2C(=O)N(C2CCC(=O)NC2=O)C4=O)N(C)C(=O)CO3)cc1F (stereo not drawn) [Compound 51, 2-(2,6-dioxopiperidin-3-yl)-4-((7-(5-fluoro-6-methoxypyridin-3-yl)-4-methyl-3-oxo-3,4-dihydro-2H-benzo[b][1,4]oxazin-6-yl)amino)isoindoline-1,3-dione]	30	++ (++ = 100 ≤ AUC < 150)	37
CCOc1cc(-c2cc3c(cc2Nc2cccc4c2C(=O)N(C2CCC(=O)NC2=O)C4=O)N(C)C(=O)CO3)ccn1 (stereo not drawn) [Compound 52, 2-(2,6-dioxopiperidin-3-yl)-4-((7-(2-ethoxypyridin-4-yl)-4-methyl-3-oxo-3,4-dihydro-2H-benzo[b][1,4]oxazin-6-yl)amino)isoindoline-1,3-dione]	143	+ (+ = 15 ≤ AUC < 100)	12
CN1C(=O)COc2cc([C@H]3CC[C@H](C#N)CC3)c(Nc3cccc4c3C(=O)N(C3CCC(=O)NC3=O)C4=O)cc21 (stereo partly drawn) [Compound 53, (1r,4r)-4-(6-((2-(2,6-dioxopiperidin-3-yl)-1,3-dioxoisoindolin-4-yl)amino)-4-methyl-3-oxo-3,4-dihydro-2H-benzo[b][1,4]oxazin-7-yl)cyclohexane-1-carbonitrile]	10	++ (++ = 100 ≤ AUC < 150)	4

Source: US20250333407A1, “Compounds and Their Use for Treatment of Hemoglobinopathies” (Bristol-Myers Squibb Company, priority 2024, published 2025)
